Assay [1] concerns the target T1, Rac GTPase-activating protein 1 (Homo sapiens, UniProt Q9H0H5).
T1 sequence (Q9H0H5 whole entry): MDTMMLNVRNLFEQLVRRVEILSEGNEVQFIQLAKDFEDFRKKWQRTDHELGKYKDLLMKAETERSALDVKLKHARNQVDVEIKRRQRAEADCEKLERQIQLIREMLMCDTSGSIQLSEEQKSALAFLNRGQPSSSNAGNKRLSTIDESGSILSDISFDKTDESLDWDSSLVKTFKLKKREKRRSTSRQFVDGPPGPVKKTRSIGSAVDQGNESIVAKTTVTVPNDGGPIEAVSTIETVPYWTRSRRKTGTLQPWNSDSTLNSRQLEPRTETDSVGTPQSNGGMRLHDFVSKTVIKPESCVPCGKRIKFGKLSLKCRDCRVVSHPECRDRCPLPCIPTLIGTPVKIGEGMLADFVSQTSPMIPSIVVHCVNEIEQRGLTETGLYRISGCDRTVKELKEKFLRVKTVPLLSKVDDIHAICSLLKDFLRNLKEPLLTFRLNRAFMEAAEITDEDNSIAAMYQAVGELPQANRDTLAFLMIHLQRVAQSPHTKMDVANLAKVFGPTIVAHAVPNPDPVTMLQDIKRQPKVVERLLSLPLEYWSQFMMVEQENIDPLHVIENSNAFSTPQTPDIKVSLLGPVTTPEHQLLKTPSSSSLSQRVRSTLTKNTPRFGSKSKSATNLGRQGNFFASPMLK
The assay is described as follows: blockers of MgcRacGAP-driven Rac1 GTP hydrolysis – biochemical, ADP Hunter fluorescence, primary and confirmatory, confirmation (AID 624330). It is filed as functional.

Assay [2] has as its target T2, RNA-binding protein pos-1 (Caenorhabditis elegans, UniProt G5EF15).
T2 sequence (G5EF15 whole entry): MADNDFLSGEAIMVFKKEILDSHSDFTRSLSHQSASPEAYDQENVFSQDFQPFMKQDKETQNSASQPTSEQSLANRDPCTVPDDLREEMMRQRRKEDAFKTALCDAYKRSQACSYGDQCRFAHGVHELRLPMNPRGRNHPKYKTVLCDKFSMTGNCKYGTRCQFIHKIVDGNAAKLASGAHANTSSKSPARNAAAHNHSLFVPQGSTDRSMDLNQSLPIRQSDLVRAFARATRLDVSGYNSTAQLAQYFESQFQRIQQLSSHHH
The assay is described as follows: disruptors of C. elegans POS-1 RNA interaction – biochemical, fluorescence polarization, dose response (AID 1964).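 Also: purified POS-1 fused to maltose binding protein made in E. coli; potency of compounds blocking POS-1 binding to fluorescent RNA.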

For assay [3], the target named is T3, Zinc finger protein mex-5 (Caenorhabditis elegans, UniProt Q9XUB2).
T3 sequence (Q9XUB2 whole entry): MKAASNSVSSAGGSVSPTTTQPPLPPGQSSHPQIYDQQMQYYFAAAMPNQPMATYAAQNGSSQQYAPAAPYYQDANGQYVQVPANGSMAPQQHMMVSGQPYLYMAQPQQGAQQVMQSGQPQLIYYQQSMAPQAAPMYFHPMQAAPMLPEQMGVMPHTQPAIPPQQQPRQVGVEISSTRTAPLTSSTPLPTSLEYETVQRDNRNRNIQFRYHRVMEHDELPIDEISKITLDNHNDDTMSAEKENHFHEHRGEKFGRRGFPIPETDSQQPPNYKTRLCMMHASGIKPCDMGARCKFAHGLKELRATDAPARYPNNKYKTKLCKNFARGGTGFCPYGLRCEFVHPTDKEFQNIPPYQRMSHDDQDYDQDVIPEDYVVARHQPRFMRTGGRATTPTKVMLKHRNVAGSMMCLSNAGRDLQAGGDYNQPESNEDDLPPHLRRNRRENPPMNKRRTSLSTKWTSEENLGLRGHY
The assay is described as follows: potency of MEX-5 RNA-binding blockers – biochemical, C. elegans, fluorescence polarization, dose response (AID 1960). (In general: Fluorescence polarisation rises when a labelled molecule tumbles more slowly, as on binding a larger partner.)

Assay [4] addresses T4, Corticotropin-releasing factor receptor 2/Corticotropin-releasing factor-binding protein (Homo sapiens, UniProt P24387+Q13324).
T4 sequence (Q13324 whole entry): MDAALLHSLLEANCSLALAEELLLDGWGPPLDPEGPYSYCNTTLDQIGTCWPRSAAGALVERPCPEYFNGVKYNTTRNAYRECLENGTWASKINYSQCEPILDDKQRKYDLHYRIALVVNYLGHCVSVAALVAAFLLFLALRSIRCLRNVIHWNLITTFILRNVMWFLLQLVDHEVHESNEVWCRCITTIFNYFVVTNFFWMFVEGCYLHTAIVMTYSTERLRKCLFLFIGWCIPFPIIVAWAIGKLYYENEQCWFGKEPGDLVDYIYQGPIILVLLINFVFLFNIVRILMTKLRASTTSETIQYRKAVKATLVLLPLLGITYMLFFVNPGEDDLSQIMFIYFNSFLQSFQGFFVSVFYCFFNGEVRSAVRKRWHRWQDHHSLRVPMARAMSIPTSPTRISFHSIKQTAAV
T4 sequence (P24387 whole entry): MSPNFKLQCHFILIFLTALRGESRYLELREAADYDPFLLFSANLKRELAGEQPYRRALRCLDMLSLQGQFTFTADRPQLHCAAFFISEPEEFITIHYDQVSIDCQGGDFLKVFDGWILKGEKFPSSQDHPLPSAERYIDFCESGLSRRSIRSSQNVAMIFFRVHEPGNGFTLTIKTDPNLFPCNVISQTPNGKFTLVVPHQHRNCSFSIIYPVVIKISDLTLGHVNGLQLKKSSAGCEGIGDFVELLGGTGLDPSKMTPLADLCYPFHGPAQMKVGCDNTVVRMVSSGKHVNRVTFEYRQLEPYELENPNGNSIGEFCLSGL
Description: activators of CRF receptor 2 with binding protein – uHTS hits, confirmation (AID 602473). The following applies: read-out: EC50_Mean. It is filed as functional.

For assay [5], the target named is T4, Corticotropin-releasing factor receptor 2/Corticotropin-releasing factor-binding protein. The assay is described as follows: Dose Response confirmation of uHTS hits for small molecule antagonists of the CRF-binding protein and CRF-R2 receptor complex. In kind it is functional. The following applies: read-out: IC50_Mean.
A further assay deals with H4. Description: Luminescence Cell-Based Dose Response HTS to Identify Activators of 5'UTR Stem-Loop Driven Prion Protein mRNA Translation in H4 Neuroglioblastoma Cells. [Related pubchem assays: 1829 (Project Summary), 1814 (Primary HTS)]. In kind it is functional. The settings on record: Homo sapiens.
A short description of assay [6]: Luminescence Cell-Based Dose Response HTS to Identify Activators of Luciferase Translation or Activity in H4 […] Cells. [Related pubchem assays: 1829 (Project Summary), 1814 (Primary HTS)]. In kind it is functional.
The nature of assay [7]: Luminescence Cell-Based Dose Confirmation HTS to Identify Activators of 5'UTR Stem-Loop Driven Alpha-Synuclein mRNA Translation in H4 Neuroglioblastoma Cells. [Related pubchem assays: 1829 (Project Summary), 1814 (Primary HTS)]. It is filed as functional.
In assay [8] the target is T5, Heat shock factor protein 1 (Mus musculus, UniProt P38532).
T5 sequence (P38532 whole entry): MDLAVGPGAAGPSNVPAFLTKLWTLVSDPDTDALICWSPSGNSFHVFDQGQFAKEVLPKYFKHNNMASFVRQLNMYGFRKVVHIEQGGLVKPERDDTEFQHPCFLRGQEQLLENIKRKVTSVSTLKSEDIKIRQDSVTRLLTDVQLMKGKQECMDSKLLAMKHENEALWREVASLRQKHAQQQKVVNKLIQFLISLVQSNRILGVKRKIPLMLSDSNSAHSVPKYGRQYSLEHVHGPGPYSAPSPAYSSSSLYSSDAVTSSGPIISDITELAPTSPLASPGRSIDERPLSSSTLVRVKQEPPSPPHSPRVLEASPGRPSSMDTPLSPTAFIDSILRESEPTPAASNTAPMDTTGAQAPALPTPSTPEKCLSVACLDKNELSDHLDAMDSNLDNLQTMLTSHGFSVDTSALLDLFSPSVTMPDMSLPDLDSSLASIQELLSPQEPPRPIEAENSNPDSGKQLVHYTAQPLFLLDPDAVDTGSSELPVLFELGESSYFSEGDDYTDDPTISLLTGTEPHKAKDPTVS
The assay is described as follows: decrease of HSF1-responsive luciferase luminescence – cell-based, NIH3T3, dose retest, confirmation (AID 2382).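 Also: NIH3T3 fibroblasts with HSF1-driven luciferase reporter stressed by proteasome inhibitor MG132; luminescence from HSF1-driven luciferase expression after 8 hours of MG132 stress.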 In kind it is functional.

Activity calls are given as the source filed them. Rule as the data show it, for most assays here: actives have a measured EC50 and inactives only a lower limit.

For the compound `O=C(c1cccc(Cl)c1)N1CCN(Cc2ccncc2)CC1`, in assay [1], the IC50 was 99.7 µM (active). On the same count and under the same terms, to `CCc1ccc2nc3sc(C(=O)O)cc3cc2c1` belongs 122 µM (active). Regarding `COC(=O)c1ccc(C2Nc3ccc(/C(C)=N/NC(=O)C(OC)c4ccccc4)cc3C3C=CCC32)cc1` (stereo not drawn), the results for the EC50 in assay [2] and in assay [3] were > 300 µM (not active) and 35.2 µM (active), respectively.

Take `Cc1ccc(NC(S)=NCc2ccccn2)cc1`: the EC50 in assay [4] is > 53 µM (inactive). The IC50 in [5] is > 47.1 µM (inactive). `Cc1cc(C)cc(N2C(=O)/C(=C\c3ccc(N4CCN(C)CC4)o3)C(=O)NC2=S)c1`: the EC50 in assay [2] and in [3] was > 300 µM (inconclusive) throughout. On to `CC(=O)c1ccc2c(c1)C1C=CCC1C(c1cc3c(cc1Br)OCO3)N2` (stereo not drawn), for which the EC50 in assay [2] and in [3] was > 300 µM (not active) throughout.

Take `CCOC(=O)c1nc(S)n(Cc2ccccc2)c1C(=O)OCC`: in assay [1], the IC50 was 49.6 µM (active).

For `CCOC(=O)N1CCN(/C=C(\C#N)c2nc3ccccc3s2)CC1`, the EC50 in [2] was > 300 µM (not active); in the assay with H4, 37.5 µM (active); in [3] it was > 300 µM (not active); in assay [6], 14.7 µM (active); in assay [7] it was 38 µM (active). As for `COc1ccc(S(=O)(=O)N2CCCCCC2)cc1C(=O)NCCc1ccccc1`, the EC50 in assay [4] is > 53 µM (inactive). Also, the IC50 in assay [5] was > 47.1 µM (inactive). For the compound `COc1ccc(N/C=C2/C(=O)N(c3cccc(C)n3)C(=O)c3ccccc32)cc1`, the EC50 in assay [2] and in assay [3] was > 300 µM (not active) throughout. `C/C(NCCN1CCCCC1)=C1/C(=O)NC(=O)N(c2ccc(Cl)cc2)C1=O`: the EC50 in assay [2] and in assay [3] was > 300 µM (not active) throughout.

For the compound `Cc1ccc(S(=O)(=O)N(CC(=O)NCc2ccco2)Cc2ccccc2F)cc1`, the EC50 in assay [4] is > 53 µM (inactive). For the same compound, in [5], the IC50 was > 47.1 µM (inactive). For the compound `O=[N+]([O-])c1ccc(/N=C/C=C(\O)c2ccc(Br)cc2)cc1`, the EC50 in [2] and in assay [3] was > 300 µM (not active) each time. Consider `NS(=O)(=O)c1ccc(NC(S)=Nc2ccc(F)c(F)c2)cc1`, for which the EC50 in assay [4] was > 53 µM (inactive). The IC50 in assay [5] was > 47.1 µM (inactive). Turning to `COc1cc(/C=N/n2c(C)nc3ccccc3c2=O)ccc1O`, in assay [1], the IC50 was 48.5 µM (active). As to `c1cc(CNc2ccc3c(c2)OCCO3)ccn1`, the IC50 in [1] was 108 µM (active). The EC50 in assay [8] was 6.77 µM (active). Consider `CC1(C)CC(=O)C(/C=N/c2ccc(N)cc2)=C(O)C1`, for which the IC50 in [1] was 46.9 µM (active).

With `Cc1c(/C=N/NC(=O)c2cc(O)nc(O)n2)c2ccccn2c1C(=O)c1ccccc1`, the EC50 was > 300 µM (not active) in assay [2] and > 300 µM (inconclusive) in assay [3]. Take `O=C(O)CCCn1c(=S)[nH]c2c(sc3ccc([N+](=O)[O-])cc32)c1=O`: the IC50 in [1] is 40.3 µM (active). For the compound `O=C(C1CCN(C2CCN(CC3CC=CCC3)CC2)CC1)N1CCOCC1` (stereo not drawn), the EC50 in assay [4] was > 53 µM (inactive). The IC50 in assay [5] was > 47.1 µM (inactive).

For `O=C(O)CC1SC(Nc2ccc(O)cc2)=NC1=O` (stereo not drawn), the IC50 in [1] is 118 µM (active). Still for that read-out and setting: the result for `COCCNCC(=O)Nc1ccc(C)c(S(=O)(=O)N2CCCCC2)c1` reads 132 µM (active). Take `CCN(CC)c1ccc(N/C=C2/C(=O)NC(=O)N(c3ccccc3)C2=O)cc1`: the EC50 in [2] and in [3] was > 300 µM (not active) in each case.

Regarding `CN(C)CCO/N=C(\c1ccc(Br)cc1)c1cccnc1`, in [1], the IC50 was 141 µM (active). On the same count and under the same terms, to `COc1ccc(NC2CCCN(C(=O)c3ccccc3-c3ncc[nH]3)C2)cc1` (stereo not drawn) belongs 146 µM (active).

`COC(=O)CCCC1=CC2=CC(=O)C(C)(OC(=O)c3cnc4ccccc4n3)C(=O)C2=CO1` (stereo not drawn): the EC50 is 12.7 µM (active) in [2] and 12.3 µM (active) in assay [3].

As for `Cc1[nH]n(CCC#N)c(=O)c1CC(=O)N1CCN(c2ccccc2)CC1`, the figures for the EC50 in assay [4] and in assay [8] were > 53 µM (inactive) and > 195 µM (not active), respectively. In addition, the IC50 in assay [5] was > 47.1 µM (inactive).

Regarding `COc1c(Cl)cc(Cl)cc1CNc1ccc(S(N)(=O)=O)cc1`, the EC50 in assay [4] was > 53 µM (inactive). Moreover, in assay [5], the IC50 is > 47.1 µM (inactive). For `Cc1nn(C)c(Oc2ccc(Cl)cc2)c1C(=O)O`, in that order: > 53 µM (inactive) and > 47.1 µM (inactive). For `CC(C)(C)c1ccc(SCCc2cccnc2)cc1`, the EC50 in assay [4] was > 53 µM (inactive). The IC50 in assay [5] is > 47.1 µM (inactive). Regarding `COCC1CCN(C(=O)CC2C(=O)NCCN2Cc2cccc(Oc3ccccc3)c2)CC1` (stereo not drawn), the EC50 in assay [2] and in assay [3] was > 300 µM (not active) each time. As for `CCOC(=O)NC(O)C(=O)c1cccs1` (stereo not drawn), in assay [4], the EC50 was > 53 µM (inactive). Also, the IC50 in assay [5] is > 47.1 µM (inactive).

The record behind these values is ChEMBL document CHEMBL1201862, “PubChem BioAssay data set” (2004).
